# Measurements as given in patent publication US10125098B2, “Therapeutic compounds and methods of use thereof” (GENENTECH, INC., priority 2014, dated 2018).
# Counter-ions that a name gives are not always drawn.
# Molecular target: T1, hNav1.7 (Homo sapiens, UniProt Q15858)
# T1 construct: expressed in transfected cells
# Assay: Tritiated compound binding (LBA) to membranes from cells expressing hNav1.7 and the β1 subunit, competitive binding
# Conditions: competitive binding vs 100 pM [3H]compound, 18 h, room temperature, membranes with hNav1.7 and β1 subunit
# Protocol: Tritiated Compound Binding to Membranes
# Isolated from Cells that Heterologously Express hNav1.7 and the β1 Subunit
# Preparation of membranes containing recombinantly expressed sodium channels: Frozen recombinant cell pellets were thawed on ice and diluted to 4 times the cell pellet weight with ice cold 50 mM Tris HCl, pH 7.4 buffer. The cell suspensions were homogenized on ice using a motorized glass dounce homogeniser. […] The supernatants were collected and centrifuged at 10000×g at 4° C. for 50 min. The pellets were then re-suspended in 100 mM NaCl, 20 mM Tris HCl, pH 7.4 buffer containing 1% v/v protease inhibitors (Calbiochem) and re-homogenized on ice. The homogenized membranes were then processed through a syringe equipped with a 26 gauge needle. Protein concentrations were determined by Bradford Assay and the membranes were stored at −80° C.
# Saturation experiments. A representative compound of formula (I) having a methyl group was tritiated. Three tritiums were incorporated in place of methyl hydrogens to generate [^3H]compound. Binding of this radioligand was performed in 5 mL borosilicate glass test tubes at room temperature. Binding was initiated by adding membranes to increasing concentrations of [^3H]compound in 100 mM NaCl, 20 mM Tris HCl, pH 7.4 buffer containing 0.01% w/v bovine serum albumin (BSA) for 18 h. Non-specific binding was determined in the presence of 1 μM unlabeled compound. After 18 h, the reactants were filtered through GF/C glass fiber filters presoaked in 0.5% w/v polyethylene imine. […] [^3H]compound bound to filters was quantified by liquid scintillation counting.
# Binding reactions were performed in 96-well polypropylene plates at room temperature for 18 h. In 360 μL, membranes were incubated with 100 pM [^3H]compound and increasing concentrations of Test Compound. Non-specific binding was defined in the presence of 1 μM unlabeled compound. Reactions were transferred and filtered through 96-well glass fiber/C filter plates presoaked with 0.5% polyethylene imine. […] Bound radioactivity was determined by liquid scintillation counting.
# Data Analysis: For saturation experiments, non-specific binding was subtracted from total binding to provide specific binding and these values were recalculated in terms of pmol ligand bound per mg protein. Saturation curves were constructed and dissociation constants were calculated using the single site ligand binding model: Beq=(Bmax*X)/(X+Kd), where Beq is the amount of ligand bound at equilibrium, Bmax is the maximum receptor density, Kd is the dissociation constant for the ligand, and X is the free ligand concentration. For competition studies percent inhibition was determined and IC50 values were calculated using a 4 parameter logistic model (% inhibition=(A+((B−A)/(1+((x/C)^D)))) using XLfit, where A and B are the maximal and minimum inhibition respectively, C is the IC50 concentration and D is the (Hill) slope.
# T1 sequence (Q15858 1-1977 isoform Q15858-3): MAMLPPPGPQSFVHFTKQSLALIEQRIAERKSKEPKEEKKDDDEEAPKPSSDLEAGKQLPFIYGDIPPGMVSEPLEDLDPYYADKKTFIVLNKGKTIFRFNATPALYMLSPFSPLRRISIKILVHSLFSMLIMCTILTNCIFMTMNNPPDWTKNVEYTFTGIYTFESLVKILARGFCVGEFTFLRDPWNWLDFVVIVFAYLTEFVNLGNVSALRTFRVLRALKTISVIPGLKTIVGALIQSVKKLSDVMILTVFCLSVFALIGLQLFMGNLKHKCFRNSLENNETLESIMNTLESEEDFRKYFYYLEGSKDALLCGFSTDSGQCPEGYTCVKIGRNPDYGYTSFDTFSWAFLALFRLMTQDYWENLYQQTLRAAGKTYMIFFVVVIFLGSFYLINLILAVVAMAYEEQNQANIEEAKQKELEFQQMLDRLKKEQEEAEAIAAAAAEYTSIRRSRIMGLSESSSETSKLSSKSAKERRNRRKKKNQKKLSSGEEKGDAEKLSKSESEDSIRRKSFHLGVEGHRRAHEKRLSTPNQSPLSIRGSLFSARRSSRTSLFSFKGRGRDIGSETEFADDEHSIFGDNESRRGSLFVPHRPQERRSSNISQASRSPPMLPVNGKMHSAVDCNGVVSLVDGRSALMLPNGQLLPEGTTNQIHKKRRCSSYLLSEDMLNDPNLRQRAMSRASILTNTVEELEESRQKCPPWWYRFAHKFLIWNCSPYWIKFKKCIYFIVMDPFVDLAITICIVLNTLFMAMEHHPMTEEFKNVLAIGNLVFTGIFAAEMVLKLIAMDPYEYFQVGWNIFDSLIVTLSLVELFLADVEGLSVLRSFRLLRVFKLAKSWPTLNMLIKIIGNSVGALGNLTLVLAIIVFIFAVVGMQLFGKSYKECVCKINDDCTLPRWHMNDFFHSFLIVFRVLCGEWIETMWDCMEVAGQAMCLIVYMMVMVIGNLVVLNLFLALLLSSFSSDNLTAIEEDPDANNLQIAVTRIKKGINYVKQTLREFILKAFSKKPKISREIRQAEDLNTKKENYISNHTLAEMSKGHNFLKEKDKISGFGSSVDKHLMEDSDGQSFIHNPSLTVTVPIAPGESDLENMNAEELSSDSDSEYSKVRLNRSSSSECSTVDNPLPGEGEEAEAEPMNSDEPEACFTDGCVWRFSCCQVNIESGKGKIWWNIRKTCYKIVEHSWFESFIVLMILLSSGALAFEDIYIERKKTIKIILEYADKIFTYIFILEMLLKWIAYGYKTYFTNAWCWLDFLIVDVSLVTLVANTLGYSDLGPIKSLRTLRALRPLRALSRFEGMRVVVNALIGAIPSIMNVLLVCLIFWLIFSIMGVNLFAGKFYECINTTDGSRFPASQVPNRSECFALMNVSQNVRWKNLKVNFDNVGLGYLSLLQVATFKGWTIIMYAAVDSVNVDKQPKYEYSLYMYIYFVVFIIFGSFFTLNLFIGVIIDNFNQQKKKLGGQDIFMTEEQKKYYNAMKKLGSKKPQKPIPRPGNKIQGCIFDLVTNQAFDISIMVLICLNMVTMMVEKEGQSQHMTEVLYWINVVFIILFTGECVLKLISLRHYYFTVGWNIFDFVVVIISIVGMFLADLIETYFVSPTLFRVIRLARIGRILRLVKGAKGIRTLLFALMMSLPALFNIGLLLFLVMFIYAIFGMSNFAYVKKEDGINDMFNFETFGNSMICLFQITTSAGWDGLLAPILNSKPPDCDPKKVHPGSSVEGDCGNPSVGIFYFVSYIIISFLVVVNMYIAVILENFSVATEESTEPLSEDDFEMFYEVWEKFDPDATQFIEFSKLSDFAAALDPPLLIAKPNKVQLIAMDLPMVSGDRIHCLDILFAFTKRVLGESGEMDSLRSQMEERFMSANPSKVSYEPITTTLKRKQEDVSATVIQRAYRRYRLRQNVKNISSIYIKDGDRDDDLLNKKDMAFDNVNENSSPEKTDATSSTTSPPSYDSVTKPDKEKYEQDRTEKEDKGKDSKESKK
# T1 sequence (Q07699 19-218 partner): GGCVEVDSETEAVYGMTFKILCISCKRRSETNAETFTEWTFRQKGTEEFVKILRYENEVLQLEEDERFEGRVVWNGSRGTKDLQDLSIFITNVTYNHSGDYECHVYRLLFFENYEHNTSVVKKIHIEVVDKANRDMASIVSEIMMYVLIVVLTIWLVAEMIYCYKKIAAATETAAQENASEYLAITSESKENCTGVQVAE
row,SMILES,IC50 [nM]
1,"O=C(O)[C@H]1CCCN1C(=O)c1cc(C2CC2)c(OCC23CC4CC(CC(C4)C2)C3)cc1F [Example 2, (R)-1-(4-(adamantan-1-ylmethoxy)-5-cyclopropyl-2-fluorobenzoyl)pyrrolidine-2-carboxylic acid]",426
2,"CC12CC3(C)CC(C)(C1)CC(COc1cc(F)c(C(=O)N4CCC[C@H]4C(=O)O)cc1C1CC1)(C2)C3 [Example 3, (S)-1-(5-cyclopropyl-2-fluoro-4-((3,5,7-trimethyladamantan-1-yl)methoxy)benzoyl)pyrrolidine-2-carboxylic acid]",8.9
3,"O=C(O)CNC(=O)c1cc(C2CC2)c(OCC23CC4CC(CC(C4)C2)C3)cc1F [Example 35, 2-(4-(adamantan-1-ylmethoxy)-5-cyclopropyl-2-fluorobenzamido) acetic acid]",7830
4,"COC[C@H](NC(=O)c1cc(C2CC2)c(OCC23CC4CC(CC(C4)C2)C3)cc1F)C(=O)O [Example 10, (S)-2-(4-(adamantan-1-ylmethoxy)-5-cyclopropyl-2-fluorobenzamido)-3-methoxypropanoic acid]",681
5,"O=C(O)[C@@H]1CCCN1C(=O)c1cc(Cl)c(OCC23CC4CC(CC(C4)C2)C3)cc1F [Example 41, (S)-1-(4-(adamantan-1-ylmethoxy)-5-chloro-2-fluorobenzoyl)pyrrolidine-2-carboxylic acid]",640
6,"O=C(O)[C@@H]1CCCN1C(=O)c1cc(C2CC2)c(CN2CCC(Oc3cc(Cl)cc(OC(F)(F)F)c3)CC2)cc1F [Example 20, (S)-1-(4-((4-(3-chloro-5-(trifluoromethoxy)phenoxy)piperidin-1-yl)methyl)-5-cyclopropyl-2-fluorobenzoyl)pyrrolidine-2-carboxylic acid trifluoroacetic acid salt]",554
7,"CC(C)(C)OC(=O)N1CC(n2nccc2-c2cc(Cl)ccc2Oc2cc(F)c(C(=O)N3CCC[C@H]3C(=O)O)cc2F)C1 [Example 33, (S)-1-(4-(2-(1-(1-(tert-butoxycarbonyl)azetidin-3-yl)-1H-pyrazol-5-yl)-4-chlorophenoxy)-2,5-difluorobenzoyl)pyrrolidine-2-carboxylic acid]",> 10000
8,"CC(c1cc(Cl)cc(Cl)c1)N1CCC(COc2cc(F)c(C(=O)N3CCC[C@H]3C(=O)O)cc2C2CC2)CC1 (stereo partly drawn) [Example 39, (2S)-1-(5-cyclopropyl-4-((1-(1-(3,5-dichlorophenyl)ethyl)piperidin-4-yl)methoxy)-2-fluorobenzoyl)pyrrolidine-2-carboxylic acid trifluoroacetic acid salt]",43.6
9,"C[C@@H](Oc1cnc(C2CC2)c(Cl)c1)c1cc(F)c(C(=O)N2CCC[C@H]2C(=O)O)cc1C1CC1 [Example 15, (S)-1-(4-((R)-1-((5-chloro-6-cyclopropylpyridin-3-yl)oxy)ethyl)-5-cyclopropyl-2-fluorobenzoyl)pyrrolidine-2-carboxylic acid]",6960
10,"CC1(COc2cc(F)c(C(=O)N3CCC[C@H]3C(=O)O)cc2C2CC2)CN(c2cc(C(F)(F)F)c(Cl)cn2)C1 [Example 21, (S)-1-(4-((1-(5-chloro-4-(trifluoromethyl)pyridin-2-yl)-3-methylazetidin-3-yl)methoxy)-5-cyclopropyl-2-fluorobenzoyl)pyrrolidine-2-carboxylic acid trifluoroacetic acid salt]",359
11,"O=C(NC1(C(=O)O)CC1)c1cc(Cl)c(Oc2ccc(OC(F)(F)F)c(Cl)c2)cc1F [Example 36, 1-(5-chloro-4-(3-chloro-4-(trifluoromethoxy)phenoxy)-2-fluorobenzamido)-cyclopropanecarboxylic acid]",> 10000
12,"O=C(O)[C@@H]1CCCN1C(=O)c1ccc(OCC23CC4CC(CC(C4)C2)C3)c(Cl)c1 [Example 23, (S)-1-((4-(adamantan-1-ylmethoxy))-3-chlorobenzoyl)pyrrolidine-2-carboxylic acid]",3960
13,"C[C@]1(COc2cc(F)c(C(=O)N3CCC[C@H]3C(=O)O)cc2C2CC2)CC[C@@H](C(F)(F)F)CC1 [Example 42, cis-(S)-1-(5-cyclopropyl-2-fluoro-4-((1-methyl-4-(trifluoromethyl)-cyclohexyl)methoxy)benzoyl)pyrrolidine-2-carboxylic acid]",231
14,"N#CC1(COc2cc(F)c(C(=O)N3CCC[C@H]3C(=O)O)cc2Cl)C2CC3CC(C2)CC1C3 (stereo partly drawn) [Example 31, (S)-1-(5-chloro-4-(((1S,3S,5S,7S)-2-cyanoadamantan-2-yl)methoxy)-2-fluorobenzoyl)pyrrolidine-2-carboxylic acid]",> 10000
15,"CN(C(=O)c1cc(C2CC2)c(OCC23CC4CC(CC(C4)C2)C3)cc1F)C1(C(=O)O)CC1 [Example 7, 1-(4-(adamantan-1-ylmethoxy)-5-cyclopropyl-2-fluoro-N-methylbenzamido)-cyclopropanecarboxylic acid]",3050
16,"CC[C@H](C)[C@H](NC(=O)c1cc(C2CC2)c(OCC23CC4CC(CC(C4)C2)C3)cc1F)C(=O)O [Example 43, (2S,3S)-2-(4-(adamantan-1-ylmethoxy)-5-cyclopropyl-2-fluorobenzamido)-3-methylpentanoic acid]",82.3
17,"O=C(O)[C@@H]1CCCN1C(=O)c1cc(F)c(Oc2ccc(Cl)cc2-c2ccnn2C2CNC2)cc1F [Example 34, (S)-1-(4-(2-(1-(azetidin-3-yl)-1H-pyrazol-5-yl)-4-chlorophenoxy)-2,5-difluorobenzoyl)pyrrolidine-2-carboxylic acid trifluoroacetic acid salt]",> 10000

# More lines, now with the values ahead:
row,IC50 [nM],SMILES
1,> 10000,"Nc1noc2ccc(-c3cc(Cl)ccc3Oc3cc(F)c(C(=O)N4CCC[C@H]4C(=O)O)cc3F)cc12 [Example 25, (S)-1-(4-(2-(3-aminobenzo[d]isoxazol-5-yl)-4-chlorophenoxy)-2,5-difluorobenzoyl)pyrrolidine-2-carboxylic acid trifluoroacetic acid]"
2,2700,"O=C(O)[C@@H]1CCCN1C(=O)c1cc(Cl)c(Oc2cnc(OCC(F)(F)F)c(Cl)c2)cc1F [Example 217, (S)-1-(5-Chloro-4-((5-chloro-6-(2,2,2-trifluoroethoxy)pyridin-3-yl)oxy)-2-fluorobenzoyl)pyrrolidine-2-carboxylic acid trifluoroacetate]"
3,17.6,"CC1(COc2cc(F)c(C(=O)N3CCC[C@H]3C(=O)O)cc2C2CC2)CN(C(c2ccccc2)c2cc(Cl)cc(Cl)c2)C1 (stereo partly drawn) [Example 28, (2S)-1-(5-cyclopropyl-4-((1-((3,5-dichlorophenyl)(phenyl)methyl)-3-methylazetidin-3-yl)methoxy)-2-fluorobenzoyl)pyrrolidine-2-carboxylic acid trifluoroacetic acid salt]"
4,452,"Cc1cc(C(=O)N2CCC[C@H]2C(=O)O)c(F)cc1OCC12CC3CC(CC(C3)C1)C2 [Example 40, (S)-1-(4-(adamantan-1-ylmethoxy)-2-fluoro-5-methylbenzoyl)pyrrolidine-2-carboxylic acid]"
5,2730,"O=C(O)[C@@H]1CCCN1C(=O)c1cc(Cl)c(Oc2cnc(OCC(F)(F)F)c(Cl)c2)cc1F [Example 24, (S)-1-(5-chloro-4-((5-chloro-6-(2,2,2-trifluoroethoxy)pyridin-3-yl)oxy)-2-fluorobenzoyl)pyrrolidine-2-carboxylic acid trifluoroacetic acid salt]"
6,87.2,"CC(C)c1cc(C(=O)N2CCC[C@H]2C(=O)O)c(F)cc1OCC12CC3CC(CC(C3)C1)C2 [Example 17, (S)-1-(4-(adamantan-1-ylmethoxy)-2-fluoro-5-isopropylbenzoyl)pyrrolidine-2-carboxylic acid]"
7,173,"O=C(O)[C@@H]1CCCN1C(=O)c1cc(C2CC2)c(OCC2CCCCC2)cc1F [Example 13, (S)-1-(4-(cyclohexylmethoxy)-5-cyclopropyl-2-fluorobenzoyl)pyrrolidine-2-carboxylic acid]"
8,21.7,"O=C(O)[C@@H]1CCCN1C(=O)c1cc(C2CCC2)c(OCC23CC4CC(CC(C4)C2)C3)cc1F [Example 27, (S)-1-(4-(adamantan-1-ylmethoxy)-5-cyclobutyl-2-fluorobenzoyl)pyrrolidine-2-carboxylic acid]"
9,> 10000,"C[C@@H](Oc1ccc(Cl)c(Cl)c1)c1cc(F)c(C(=O)NC2(C(=O)O)CC2)cc1C1CC1 [Example 9, (R)-1-(5-cyclopropyl-4-(1-(3,4-dichlorophenoxy)ethyl)-2-fluorobenzamido)cyclopropanecarboxylic acid]"
